Data set [1] has as its system VSV-G PP. Format: cell-based, vesicular stomatitis virus.
Data set [2] is described as follows: ATP content cytotoxicity assay. The settings on record: human, HEK293-ACE2 cells.
In data set [3] the test system is SARS-CoV-2-S PP (Wuhan-Hu-1 spike). The data set is described as follows: microbe, parasite or virus in culture. Format: cell-based. To be noted: Severe acute respiratory syndrome coronavirus 2, read-out: PP EC50.
For data set [4], the system named is SARS-CoV-2 (USA_WA1/2020). Format: cell-based.

Structures can show the parent of a compound that is named as a salt.

For `Nc1ncnc2c1ncn2CCOCP(=O)(O)O` [adefovir], in data set [1], the “potency in the VSV-G PP entry counter assay compared with SARS-CoV-2-S PP entry” value (“potency … compared with SARS-CoV-2-S PP entry” for short) is on record as “same potency”.

For the compound `COc1cc(N2CCC(N3CCN(C)CC3)CC2)ccc1Nc1ncc(Cl)c(Nc2ccccc2P(C)(C)=O)n1` [Brigatinib, brigatinib], a half-maximal response in data set [2] (EC50 at 48 h) required 670 nM. Also, the EC50 in data set [3] was 4300 nM. Consider `CCCC[C@@H](C=O)NC(=O)[C@H](CC(C)C)NC(=O)OCc1ccccc1` [Calpeptin, calpeptin], for which, in data set [2], the EC50 at 48 h is over 50000 nM. Further, the EC50 in data set [3] came out at 1200 nM.

With `C[C@@H]1CCO[C@H]2Cn3cc(C(=O)NCc4ccc(F)cc4F)c(=O)c(O)c3C(=O)N12` [dolutegravir], the “potency … compared with SARS-CoV-2-S PP entry” value in data set [1] was “same potency”.

In data set [2], `Cc1cccc(/C=N/Nc2cc(N3CCOCC3)nc(OCCc3ccccn3)n2)c1` [Apilimod, apilimod] registered an EC50 at 48 h of 9310 nM. Besides, in data set [3], the EC50 stood at 120 nM. As for `COc1cc2c(cc1Cc1cccc(Cl)c1F)c(=O)c(C(=O)O)cn2[C@H](CO)C(C)C` [elvitegravir], in data set [1], the “potency … compared with SARS-CoV-2-S PP entry” value is recorded as “same potency”. As to `CCOC(=O)[C@H]1O[C@@H]1C(=O)N[C@@H](CC(C)C)C(=O)NCCC(C)C` [Aloxistatin, aloxistatin], the EC50 at 48 h in data set [2] is over 50000 nM. Further, the half-maximal effective concentration (EC50) in data set [3] is 190 nM. As to `CC(C)OC(=O)OCOP(=O)(CO[C@H](C)Cn1cnc2c(N)ncnc21)OCOC(=O)OC(C)C` [tenofovir disoproxil fumarate], the “potency … compared with SARS-CoV-2-S PP entry” value in data set [1] was “same potency”.

On to `Oc1ccc(Cl)cc1Cc1cc(Cl)ccc1O` [Dichlorophen, dichlorophen], for which, in data set [4], the “protective effect against cell death caused by the virus (CPE rescue)” value is “not confirmed”. Moreover, the concentration giving a half-maximal response (EC50) in data set [3] stood at 30 nM.

The EC50 is the concentration that produces a half-maximal response.

For the origin of these results see doi:10.1101/2021.10.04.463106, “A high throughput screening assay for inhibitors of SARS-CoV-2 pseudotyped particle entry” (bioRxiv, 2021).
